This is an account of results in patent US4374139A, “Levorotatory N-substituted acylmorphinans useful as analgesic agents” (priority 1981, dated 1983).

The subject of assay [1] is mice exposed to intra-abdominally induced chemical pain. As to the kind of experiment: animal or person. The class given is in vivo, mouse. The protocol: (§1) The ED50 was the dose which reduced the total number of writhes by 50%. […] A modification of the tail flick test described by Dewey and Harris (in: S. Ehrenpreis and A. Neidle (eds.), Methods in Narcotics Research, Marcel Dekker, Inc., New York, 1975, pp. 101-108) was used to measure the tail flick reaction times following oral or subcutaneous administration of the compounds of formula I of the invention.
(§2) Doses were calculated as the salts of all the compounds. Injection volume was 0.1 ml/10 g body weight. For each test compound, ED 50 values were calculated separately for each test. Log dose regression analysis and Fieller's Theorem were used to compute the ED 50 and its 95 percent confidence limits. The analysis was performed on the tail flick latency scores of all mice that were treated with a test compound. For any given test, the average tail flick latency score of the vehicle control group was calculated and a latency value, Z, was derived from this, as follows: [formula] where the cutoff time was 10 seconds. […] The value of Z was entered as an interpolate into the regression analysis so that an ED50, defined as the dose that increased tail flick latencies by 50 percent of the maximum possible response, could be computed.

Assay [2] has as its system mice exposed to radiant heat stimulus on the tail. Put plainly: animal or person. The class given is in vivo, male mice (Charles River, CF-1/CD).
Description: as §1
More specifically, groups of 10 male mice (Charles River, CF-1/CD, 18-22 gm) were placed in individual stainless steel, ventilated, cylindrical restrainers with their tails protruding through a hole at one end. The restraining tubes were positioned on a sliding platform so that each mouse, in turn, could be exposed to a high intensity lamp. The rays from the lamp were focused by means of a parabolic reflector directly on the tail. The intensity of the heat was adjusted by means of a rheostat so that untreated mice would responsed in approximately 2 to 4 seconds. When the endpoint response occurred (a sudden twitch of the tail, removing it from the path of the radiant heat stimulus), the experimenter stopped a reaction time clock. In the event that no response occurred within 10 seconds (the cutoff time), the tester terminated the trial and assigned a latency score of 10 seconds for that trial. The reaction time of each mouse was determined before and again 30,60,90 and 120 minutes after treatment.
Each group of 10 mice was treated orally or subcutaneously with vehicle (normal saline) or with logarithmically spaced doses of the test compounds. For most compounds, four dose levels, which were studied in a single test session, were sufficient to provide a satisfactory estimate of the ED50. Occasionally, five or six does levels were needed. […] Because of this, some vehicle control groups and dosed groups consisted of a total of 20 mice, rather than 10.
as §2

The mark [3] stands for this setting: mouse, oral, dose which reduced the total number of writhes by 50%, doses as the salts, read-out: ED50 Writhing Oral.
[4] abbreviates: sc, mouse, subcutaneous, dose which reduced the total number of writhes by 50%, doses as the salts, read-out: ED50 Writhing Subcu.
[5] abbreviates: mouse, oral, dose that increased tail flick latencies by 50 percent of the maximum possible response, cutoff 10 seconds, doses as the salts, read-out: ED50 Tail Flick Oral.
[6] abbreviates: sc, mouse, subcutaneous, dose that increased tail flick latencies by 50 percent of the maximum possible response, cutoff 10 seconds, doses as the salts, read-out: ED50 Tail Flick Subcu.
Where [7] appears, read: Mus musculus, po, read-out: ED50 Writhing Oral.
Where [8] appears, read: Mus musculus, sc, read-out: ED50 Writhing Subcu.
The mark [9] stands for this setting: Mus musculus, po, read-out: ED50 Tail Flick Oral.
Setting [10] is: Mus musculus, sc, read-out: ED50 Tail Flick Subcu.

Structures can show the parent of a compound that is named as a salt. Where two headings read alike, the source gives them in different places. A value given as a limit tells only on which side of the number the result lay.

For the compound `CCC(=O)c1ccc2c(c1)[C@@]13CCCC[C@H]1[C@@H](C2)N(C)CC3.Cl` [(-)-1-(17-methylmorphinan-3-yl)-1-propanone hydrochloride], the ED50 in assay [1] (setting [3]) worked out at 1.9 mg/kg; in assay [1] (setting [4]), 0.22 mg/kg; in assay [2] (setting [5]) it was 12 mg/kg; in assay [2] (setting [6]), 2.3 mg/kg.

As to `CN1CC[C@]23CCCC[C@H]2[C@H]1Cc1ccc(C(C)(C)O)cc13` [(-)-α,α-17-trimethylmorphinan-3-methanol hydrochloride], the ED50 was found to be 2.5 mg/kg in assay [1] (setting [3]), 1.05 mg/kg in assay [1] (setting [4]), 12 mg/kg in assay [2] (setting [5]) and 4.3 mg/kg in assay [2] (setting [6]).

Consider `CC(=O)c1ccc2c(c1)[C@@]13CCCC[C@H]1[C@@H](C2)N(C)CC3.O=C(O)C(O)C(O)C(=O)O` [(-)-3-acetyl-N-methylmorphinan d-tartrate], for which the ED50 in assay [1] (setting [7]) was 0.5 mg/kg; in assay [1] (setting [8]) it was 0.08 mg/kg; in assay [2] (setting [9]) it was 2 mg/kg; in assay [2] (setting [10]), 3.9 mg/kg.

As to `CC(=O)c1ccc2c(c1)[C@@]13CCCC[C@H]1[C@@H](C2)N(CC=C(C)C)CC3.O.O=C(O)C(O)C(O)C(=O)O` [(-)-1-[17-(3-methyl-2-butenyl)morphinan-3-yl]ethanone d-tartrate monohydrate], the ED50 was 43 mg/kg in assay [1] (setting [7]), 5.9 mg/kg in assay [1] (setting [8]), 115 mg/kg in assay [2] (setting [9]) and around 50 mg/kg in assay [2] (setting [10]).

For the compound `CC(=O)c1ccc2c(c1)[C@@]13CCCC[C@H]1[C@@H](C2)N(CCC#N)CC3.Cl` [(-)-3-acetyl-17-morphinanpropanenitrile hydrochloride], the ED50 in assay [1] (setting [3]) is 4.4 mg/kg; in assay [1] (setting [4]), 0.57 mg/kg; in assay [2] (setting [5]) it was 51.2 mg/kg; in assay [2] (setting [6]), 6.1 mg/kg.

Take `CC(O)c1ccc2c(c1)[C@@]13CCCC[C@H]1[C@@H](C2)N(C)CC3` (stereo partly drawn) [(-)-α-17-dimethylmorphinan-3-methanol hydrochloride]: the ED50 in assay [1] (setting [3]) is 0.36 mg/kg; in assay [1] (setting [4]), 0.24 mg/kg; in assay [2] (setting [5]) it was 1.1 mg/kg; in assay [2] (setting [6]) it was 1.3 mg/kg.

`CC(=O)c1ccc2c(c1)[C@@]13CCCC[C@H]1[C@@H](C2)N(CC1CCC1)CC3.Cl` [(-)-3-acetyl-N-cyclobutylmethylmorphinan hydrochloride]: the ED50 in assay [1] (setting [3]) was found to be 5.7 mg/kg; in assay [1] (setting [4]), 1.2 mg/kg; in assay [2] (setting [5]) it was 27.6 mg/kg; in assay [2] (setting [6]) it was 4.9 mg/kg.

Regarding `CC(=O)c1ccc2c(c1)[C@@]13CCCC[C@H]1[C@@H](C2)N(CCc1ccccc1)CC3` [(-)-1-[N-(2-phenethyl)morphinan-3-yl]ethanone d-tartrate hemihydrate], the ED50 in assay [1] (setting [3]) turned out to be 1.2 mg/kg; in assay [1] (setting [4]), 0.39 mg/kg; in assay [2] (setting [5]), 10.4 mg/kg; in assay [2] (setting [6]) it was 1.8 mg/kg.

Turning to `CN1CC[C@]23CCCC[C@H]2[C@H]1Cc1ccc(C(=O)c2ccccc2)cc13.O=C(O)C(O)C(O)C(=O)O` [(-)-(17-methylmorphinan-3-yl)phenylmethanone d-tartrate], the ED50 in assay [1] (setting [7]) was 35.5 mg/kg; in assay [1] (setting [8]) it was 22.2 mg/kg; in assay [2] (setting [9]) it was above 200 mg/kg; in assay [2] (setting [10]) it was above 50 mg/kg.

Take `CC(=O)c1ccc2c(c1)[C@@]13CCCC[C@H]1[C@@H](C2)N(CC1CC1)CC3.Cl` [(-)-1-[N-(cyclopropylmethyl)morphinan-3-yl]-ethanone hydrochloride]: the ED50 amounted to 2.1 mg/kg in assay [1] (setting [3]), 0.18 mg/kg in assay [1] (setting [4]), 1.5 mg/kg in assay [2] (setting [5]) and 2.3 mg/kg in assay [2] (setting [6]).

Regarding `CC(=O)c1ccc2c(c1)C[C@@H]1[C@@H]3CCCC[C@]23CCN1C.O=C(O)C(O)C(O)C(=O)O` [(-)-2-acetyl-N-methylmorphinan d-tartrate], the ED50 in assay [1] (setting [7]) was 22.3 mg/kg; in assay [1] (setting [8]) it was 4 mg/kg; in assay [2] (setting [9]), 75 mg/kg; in assay [2] (setting [10]), above 50 mg/kg.
